Ends that are not written are not given here.
Key:
[1] = test system: LPS-stimulated TNF production in THP-1 cells; test: LPS neutralization by TNF cellular toxicity assay (THP-1 / L929 cells); type: cell-based, human; conditions: 5 ng/mL LPS
Text: A screening assay for LPS neutralization was developed using a tumor necrosis factor (TNF) cellular toxicity assay. A human monocytic cell line (THP-1; accession number TIB202, American Type Culture Collection, Rockville, Md.) grown in media supplemented with Vitamin D produce TNF upon stimulation with LPS in a dose-dependent fashion. Mouse fibroblasts (L929 cells; ATCC No.: CCL1) are sensitive to TNF-mediated cell killing, and this cell killing is also dose-dependent. Thus, the extent of cell killing of L929 cells provides a sensitive assay for the degree of TNF induction in THP-1 cells, which in turn is a sensitive indicator of the amount of free LPS in contact with the THP-1 cells. LPS binding and neutralization by BPI functional domain peptides or rBPI23 reduces the amount of free LPS in contact with THP-1 cells, which reduces the amount of TNF produced, which in turn reduces the amount of L929 cell killing in a standardized assay. Thus, the following assay provides a sensitive method for assessing the LPS binding and neutralization capacity of the BPI functional domain peptides of this invention.
THP-1 cells were grown in RPMI media (GIBCO, Long Island, N.Y.) supplemented with 10% FCS and Vitamin D in spinner culture for 3 days to a density of about 150,000 cells/mL. Cells were then plated in a round-bottomed 96-well culture plate at a density of 100,000 cells/well and incubated in RPMI media without Vitamin D or FCS in the presence of 5 ng/mL E. coli 01113 LPS for 6 hr at 37° C. Experimental control wells also contained varying amounts of rBPI23 or BPI functional domain peptides, in concentrations varying from about 0.1 μg/mL to about 100 μg/mL. After this incubation, the plates were centrifuged at about 600×g to pellet the cells, and 50 μL of the supernatant were added to a 96-well flat bottomed culture dish prepared in parallel with 50,000 L929 cells per well in 50 μL RPMI/10% FCS.
L929 cells were prepared by monolayer growth in RPMI/10% FCS media to a density of about 1 million cells per dish, then split 1:2 on the day before the experiment and allowed to grow overnight to about 70% confluence on the day of the experiment. Actinomycin D was added to the 70% confluent culture to a final concentration of 1 μg/mL 20 min prior to plating in 96-well plates. L929 cell plates were incubated in the presence of the THP-1 supernatant for about 16 hr (overnight) at 37° C. under standard conditions of mammalian cell growth. To each well was then added […] of a solution prepared by diluting 100 μL of phenazine methylsulfonate in 2 mL CellTitre 96™ AQueous solution (Promega, Madison, Wis.), containing 3-[(4,5-dimethyl)-thiozol-2-yl]-5-(3-carboxymethoxyphenyl)-2-(4-sulfonyl)-2H-tetrazolium (inner salt). The cultures were allowed to incubate for 2-4 hr at 37° C. and then analyzed spectrophotometrically to determine the optical absorbance at 490 nm (A490). Experimental results were evaluated relative to a semilog standard curve prepared with known amounts of TNF, varying from about 10 ng/mL to about […].

Candida albicans = type: cell-based; conditions: broth assay, FIGS. 11p and 11q
Method: In additional experiments, broth antibacterial assays were conducted to further determine the bactericidal activity of certain of the BPI peptides. Specifically, either E. coli J5 (rough) or E. coli 0111:B4 (smooth) bacteria were selected from single colonies on agar plates and used to inoculate 5 mL of Mueller Hinton broth and incubated overnight at 37° C. with shaking. The overnight culture was diluted (˜1:50) into 5 mL fresh broth and incubated at 37° C. to log phase (˜3 hours). Bacteria were pelleted for 5 minutes at 3000 rpm (1500×g). Bacterial pellets were resuspended in 5 mL PBS and diluted to 2×10^6 cells/mL in the Mueller Hinton broth (wherein 1 OD570 unit equals 1.25×10^9 CFU/mL). The BPI functional domain peptides to be tested were diluted to 200 μg/mL in broth and serially diluted 2-fold in 96 well culture plates (100 μL volume). All items were at 2-fold final concentration and experiments were conducted in triplicate. Bacteria were added at 100 μL/well and the plates were incubated on a shaker at 37° C. for a 20 hour period. The plates were then read on an ELISA plate multiple reader at 590 nm. One of the triplicate wells from each peptide concentration was selected for colony forming unit (CFU) determination. A 30 μL aliquot was added to 270 μL of PBS and further ten-fold serial dilutions were performed. Then a 50 μL aliquot was plated on tryptic soy agar and incubated overnight. Colonies were counted and final bacterial concentrations determined. The results of these assays are depicted in FIGS. 9e (for E. coli J5) and 9f (for E. coli 0111:B4).
In light of the results of the experiments disclosed in Example 15, the bactericidal activity of domain II-domain III combination peptides were compared with the bactericidal activity of each of the component BPI domain II and domain III peptides, against a number of different bacteria and other microorganisms. The following BPI functional domain peptides as described above were used in radial diffusion bactericidal assays (Example 2) and broth bactericidal assays (Example 13) essentially as described in Example 15 above. These Figures show results of bactericidal assays using the following bacterial strains: […]

[2] = test system: LPS-induced TNF production in whole blood; test: Inhibition of LPS-induced TNF production in whole blood; type: cell-based; conditions: LPS-induced TNF production in human whole blood, E. coli 0113 LPS, 4 h at 37° C.
Method: LPS neutralization by BPI functional domain peptides of the invention was assayed in whole blood as follows. Freshly drawn blood from healthy human donors was collected into vacutainer tubes (ACD, Rutherford, N.J.) Aliquots of blood (170 μL) were mixed with 10 μL Ca^++-, Mg^++-free PBS containing 2.5 ng/mL E. coli 0113 LPS, and with 20 μL of varying concentrations of the BPI peptides of the invention ranging in concentration from 0.5-50 μg/mL. These mixtures were then incubated for 4 h at 37° C., and then the reaction stopped by the addition of 55 μL ice-cold Ca^++-, Mg^++-free PBS, followed by centrifugation at 500×g for 7 min. Supernatants were then assayed for TNF levels using a commercial ELISA kit (Biokine™ ELISA Test, T-cell Sciences, Cambridge. MA).

Klebsiella pneumoniae = test: Radial diffusion bactericidal assay, Klebsiella pneumoniae; type: cell-based
[3] = FIG. 11c, up to about 2000 pmol

| Substance | IC50 (LPS-stimulated TNF production, L929 cell killing) [1] [µg/mL] | fungicidal activity (in words) (Candida albicans) | IC50 TNF assay [2] | bactericidal activity (in words) (Klebsiella pneumoniae; FIG. 10d) | bactericidal activity (in words) (Klebsiella pneumoniae; [3]) |
| --- | --- | --- | --- | --- | --- |
| KWKAAARFLKKWKAAARFLK [BPI.48] | 1 | much lower activity levels | – | – | – |
| KWKAQKRFLKKWKAQKRFLK-NH2 (C-terminus assumed) [BPI.7] | 30 | – | Not Inhibitory | low levels of activity | – |
| KSKVGWLIQLFHKKKSKVGWLIQLFHKK-NH2 (C-terminus assumed) [BPI.29] | 2 to 3 | much lower activity levels | 5.0 µg/mL | moderate levels of activity | – |
| KSKVGWLIQLFHKK-NH2 (C-terminus assumed) [BPI.13] | 20 | found to have fungicidal activity | 42 µg/mL | low levels of activity | showed bactericidal activity |
| IKISGKWKAQKRFLK [BPI.2] | – | much lower activity levels | – | – | – |
| KWKAQKRFLKKSKVGWLIQLFHKK-NH2 (C-terminus assumed) [BPI.30] | 6 to 7 | much lower activity levels | – | highest amount of bactericidal activity | showed bactericidal activity |

From patent US20040023884A1, “Biologically active peptides from functional domains of bactericidal/permeability-increasing protein and uses thereof” (priority 1993, published 2004)
